The record followed here is patent US11719711B2, “Compositions and methods for detecting and/or treating inflammation” (THE GENERAL HOSPITAL CORPORATION, priority 2013, dated 2023).

Assay [1] deals with pro-inflammatory chemokine mRNA expression in MDCK-C11 cells. Description: Quantitative PCR of pro-inflammatory mediators in MDCK-C11 cells. The class given is cell-based, Canine.
Protocol: Total RNA was isolated from cells using RNeasy micro kit (Qiagen, Valencia, Calif.) and from tissues using RNeasy Mini kit, as described previously (36). DNase I digestion was performed using RNase-Free DNase Set (Qiagen) according to the manufacturer's instructions. All reverse transcription (RT) and PCR reagents were from Applied Biosystems (Foster City, Calif.). Reverse-transcription was performed for 1 h at 42° C. in a final volume of 50 μl with 1× buffer II, 5 mM MgCl2, 1.0 mM each dNTP, 1 U/μl RNase inhibitor, 2.5 μM random hexamers, and 2.5 U/μl MuLV reverse transcriptase. PCR was performed on RT products. For end point PCRs, reaction mixtures consisted of a 20 μl final volume containing 2 μl template, 1.25 units AmpliTaq Gold DNA polymerase, lx buffer II, 1.5 mM MgCl2, 1.0 mM each dNTP, and 0.5 μM forward and reverse oligonucleotide primers. The following parameters were used for PCR: 8 min at 95° C. to activate the polymerase, 35 cycles of melting for 30 s at 95° C., annealing for 30 s at 60° C., extension for 30 s at 72° C., and a final extension for 10 min at 72° C. The amplification products were visualized by electrophoresis on a 1-2% agarose gel containing GelStar stain (Lonza, Rockland, Me.).
Real Time PCR was performed with a 7300 Real Time PCR system (Applied Biosystems). Amplification products were detected using the Power SYBR Green PCR master mix (Applied Biosystems), according to the manufacturer's instructions. Standard-curve relative quantifications were performed and relative values of each sample were normalized to GAPDH values. Samples were analyzed in triplicates for each experiment.
MDCK-C11 cells were cultured at 37° C. in a 5% CO2-95% O2 mix in DMEM (Invitrogen) supplemented with 2 mM glutamine, 10% fetal bovine serum (Invitrogen), penicillin (100 U/ml), and streptomycin (100 μg/ml) (Invitrogen). Prior to any treatment, cells were serum starved for 24 hours. For cell surface biotinylation assays, cells were either grown to confluence on plastic dishes or on filters. Biotinylation was performed as described previously (75). Briefly cells were incubated with 1 mg/ml of biotin (Thermo Scientific, Pittsburgh, Pa.) in PBS pH 8 on ice for 1 h. The excess biotin was quenched with 100 mM glycine and cells were either further processed for immunostaining or lysed in lysis buffer [150 mM NaCl, 5 mM EDTA, 50 mM Tris/HEPES, pH 7.5; 1% (vol/vol) Triton X-100] containing protease and phosphatase inhibitors (Complete Mini EDTA free, PhosSTOP, Roche Diagnostics, Laval, Canada), for 20 min at 4° C. Total protein expression was determined in 2-5 μg of proteins from the total cell extracts. 50-100 μg of cell lysate proteins were incubated with neutravidin beads (Thermo Scientific) overnight at 4° C. […]
Assay [2] deals with T1, P2Y14 (Canis lupus familiaris, UniProt A0A8I3S656).
T1 sequence (A0A8I3S656 1-340): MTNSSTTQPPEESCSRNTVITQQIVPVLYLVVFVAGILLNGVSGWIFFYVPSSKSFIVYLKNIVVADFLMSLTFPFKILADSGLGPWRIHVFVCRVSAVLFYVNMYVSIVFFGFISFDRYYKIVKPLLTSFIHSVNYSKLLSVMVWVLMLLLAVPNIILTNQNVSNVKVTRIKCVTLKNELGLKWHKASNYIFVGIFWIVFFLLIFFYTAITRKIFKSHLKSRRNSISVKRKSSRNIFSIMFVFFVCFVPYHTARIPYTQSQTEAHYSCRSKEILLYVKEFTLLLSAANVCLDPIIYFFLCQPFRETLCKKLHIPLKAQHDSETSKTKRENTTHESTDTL
Particulars: MDCK-C11 cells, PPTN 10 μM pre-treatment 30 minutes, 100 μM UDP-glucose.

Assay [3] addresses T2, P2Y14 (Mus musculus, UniProt Q9ESG6).
T2 sequence (Q9ESG6 1-338): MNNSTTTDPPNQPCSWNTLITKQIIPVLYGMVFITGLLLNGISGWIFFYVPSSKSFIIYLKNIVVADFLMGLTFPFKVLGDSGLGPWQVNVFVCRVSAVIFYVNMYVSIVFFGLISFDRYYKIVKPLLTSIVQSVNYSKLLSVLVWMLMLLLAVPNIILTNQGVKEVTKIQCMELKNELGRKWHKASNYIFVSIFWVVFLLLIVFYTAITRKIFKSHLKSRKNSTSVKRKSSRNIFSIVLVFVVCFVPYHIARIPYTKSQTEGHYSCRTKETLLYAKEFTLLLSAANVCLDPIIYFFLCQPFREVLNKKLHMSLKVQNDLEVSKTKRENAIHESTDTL
As to the kind of experiment: ERK1/2 phosphorylation in FACS isolated EGFP(+) intercalated cells (immunoblot). Particulars: with PPTN. Also noted: using total membranes separated from FACS isolated EGFP(+) cells and EGFP(−) cells; endogenous in cells; host or cells: EGFP(+) intercalated cells freshly isolated by FACS from kidneys of B1-EGFP transgenic mice. It is filed as cell-based. (A western blot detects proteins with antibodies after separation by electrophoresis.)
Protocol: Mice were anesthetized using pentobarbital sodium (50 mg/kg body, ip, Nembutal, Abbott Laboratories, Abbott Park, Ill.). The blood was flushed out of the organs by perfusing the animals with a phosphate-buffered saline (PBS) through the cardiac left ventricle at a constant flow rate of 17 ml/min. Kidneys were excised and sliced, and some kidneys were microdissected to separate the cortex from the medulla. Tissues were then minced immediately with scissors in RPMI 1640 medium (Invitrogen, Grand Island, N.Y.) containing 1.0 mg/ml collagenase type I (Invitrogen), 1.0 mg/ml collagenase type II (Sigma Aldrich) and 2 mg/ml hyaluronidase (Sigma Aldrich), and digested for 45 min at 37° C. A 40-μm-nylon mesh was used to remove undigested material following tissue digestion. Cells were then washed once with RPMI 1640 medium and once with a calcium-free PBS. EGFP-positive (EGFP(+)) and negative (EGFP(−)) cells were isolated immediately by FACS, based on their green fluorescence intensity, as described previously (36). Cell isolation was performed at the MGH flow cytometry core facility using a modified FACS Vantage cell sorter (BD Biosciences, San Jose, Calif.). FACS isolated samples were collected in PBS and used without delay for subsequent treatment and/or cell fractionation, protein and RNA isolation, or imaging. […]

In assay [4] the target is T2, P2Y14. Conditions: EGFP(+) cell membranes, saturating concentration 10^−5 M unlabeled ligand.
Protocol: Mice were anesthetized using pentobarbital sodium (50 mg/kg body, ip, Nembutal, Abbott Laboratories, Abbott Park, Ill.). The blood was flushed out of the organs by perfusing the animals with a phosphate-buffered saline (PBS) through the cardiac left ventricle at a constant flow rate of 17 ml/min. Kidneys were excised and sliced, and some kidneys were microdissected to separate the cortex from the medulla. Tissues were then minced immediately with scissors in RPMI 1640 medium (Invitrogen, Grand Island, N.Y.) containing 1.0 mg/ml collagenase type I (Invitrogen), 1.0 mg/ml collagenase type II (Sigma Aldrich) and 2 mg/ml hyaluronidase (Sigma Aldrich), and digested for 45 min at 37° C. A 40-μm-nylon mesh was used to remove undigested material following tissue digestion. Cells were then washed once with RPMI 1640 medium and once with a calcium-free PBS. EGFP-positive (EGFP(+)) and negative (EGFP(−)) cells were isolated immediately by FACS, based on their green fluorescence intensity, as described previously (36). […]
Confluent MDCK-C11 cells were scrapped in ice-cold PBS, pelleted by centrifugation (500 g, 10 min) and then resuspended in 1 ml ice-cold Tris-acetate 0.2 M buffer (pH 7.5) containing protease inhibitors (Complete Mini, Roche, Indianapolis, Ind.) using a 25G needle. […] Protein concentration was determined using a nanodrop 2000 (Thermo scientific). […]
For assay [5], the target named is T1, P2Y14. Description: [3H]UDP-glucose dose-displacement binding to MDCK-C11 membranes. Particulars: MDCK-C11 membranes 15 μg, [3H]UDP-glucose 3 nM, 3 hours 22° C., increasing concentrations (ATP up to 10 μM). Also noted: endogenous in cells; host or cells: MDCK-C11 cells (Madin-Darby Canine Kidney subclone C11), not transfected; species or system Canine.
Protocol: Incubation was terminated by the addition of ice-cold 50 mM Tris/HCl pH 7.4, 1 mM EDTA, 5 mM MgCl2 and was followed immediately by filtration under vacuum through Gelman A/E glass filters (Pall life science, An Arbor, Mich.) pre-soaked in binding buffer. The filters were rinsed twice before the addition of 5 ml of scintillation fluid (OpticFluor, Groninge, The Netherlands). Receptor-bound radioactivity was measured using liquid scintillation analyzer Tricarb 2200 CA from Parckard. All assays were performed in triplicate. […] Incubations were stopped by the addition of ice-cold buffer and receptor-bound radioactivity was determined as described above. The equilibrium dissociation constant (Kd) and the capacity of binding in dose-displacement studies were calculated using a scatchard plot and are expressed as the mean±SD. Statistical analysis were performed using the unpaired Student t-test.
Where [6] appears, read: PD98059 50 μM pretreatment 30 minutes.

Consider `O=C(O)c1cc(-c2ccc(C3CCNCC3)cc2)c2ccc(-c3ccc(C(F)(F)F)cc3)cc2c1` [PPTN, 4-[4-(piperidin-4-yl)phenyl]-7-[4-(trifluoromethyl)phenyl]-2-naphthoic acid], for which, in assay [1] (PPTN pretreatment 30 minutes), the “increase in CCl2 mRNA expression induced by UDP-glucose” value was “abolished” and the “increase in IL8 mRNA expression induced by UDP-glucose” value was “abolished”. Besides, the “UDP-glucose induced increase in ERK1/2 phosphorylation” value on P2Y14 [2] is on record as “abolished”. The “UDP-glucose dependent ERK phosphorylation in ICs isolated by FACS (FIG. 14)” value on P2Y14 [3] is “inhibits”.

For `COc1cccc(-c2cc(=O)c3ccccc3o2)c1N` [PD98059], in assay [1] (setting [6]), the “UDP-glucose induced up regulation of CCL-2 mRNA” value is “abolished” and the “UDP-glucose induced up regulation of IL-8 mRNA” value is “abolished”.

For `Nc1ncnc2c1ncn2[C@@H]1O[C@H](COP(=O)(O)OP(=O)(O)OP(=O)(O)O)[C@@H](O)[C@H]1O` [ATP], the “displacement of [3H]UDP-glucose binding” value on P2Y14 [4] is “not with ATP”. Further, the “inhibition of [3H]UDP-glucose binding by unlabeled ligand” value on P2Y14 [5] was “no significant inhibitory effect”.
